Measured values from article PMC10824666 (Nature Cancer, 2023).
Where two headings read alike, the source gives them in different places. One block for each molecule: values may come before it.

How the values were obtained:
Assay in all cases: biochemical
Set-up in all cases: Eurofins DiscoverX kinase panel, competitive binding assay at 1 uM, percent of DMSO control
[1] = target: MARK1 (Homo sapiens, UniProt Q9P0L2); settings: competitive binding, percent of DMSO control
In short: (§1)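 Competitive binding assay across a 96-kinase panel with KIF18A compounds at 1 µM; values given as percentage of control (POC), single experiment.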

[2] = target: T1, JNK3 (Homo sapiens, UniProt P53779); settings: competitive binding, percent of DMSO control
T1 construct: gene MAPK10
T1 sequence (P53779 whole entry): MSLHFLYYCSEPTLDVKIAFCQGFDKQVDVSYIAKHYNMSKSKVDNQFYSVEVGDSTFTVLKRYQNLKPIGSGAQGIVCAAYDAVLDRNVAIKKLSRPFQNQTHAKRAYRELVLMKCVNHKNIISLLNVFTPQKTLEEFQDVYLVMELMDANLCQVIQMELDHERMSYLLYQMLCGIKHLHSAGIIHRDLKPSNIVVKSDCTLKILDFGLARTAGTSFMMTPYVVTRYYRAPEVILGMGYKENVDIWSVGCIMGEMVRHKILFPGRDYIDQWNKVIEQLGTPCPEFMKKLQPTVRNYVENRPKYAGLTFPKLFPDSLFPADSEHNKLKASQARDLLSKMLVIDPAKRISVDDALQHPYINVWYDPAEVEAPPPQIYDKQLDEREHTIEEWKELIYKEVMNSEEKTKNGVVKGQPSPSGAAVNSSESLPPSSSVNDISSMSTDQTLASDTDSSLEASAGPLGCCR
In short: as §1

[3] = target: DDR1 (Homo sapiens, UniProt Q08345); settings: competitive binding, percent of DMSO control
Sequence of DDR1 (Q08345 whole entry): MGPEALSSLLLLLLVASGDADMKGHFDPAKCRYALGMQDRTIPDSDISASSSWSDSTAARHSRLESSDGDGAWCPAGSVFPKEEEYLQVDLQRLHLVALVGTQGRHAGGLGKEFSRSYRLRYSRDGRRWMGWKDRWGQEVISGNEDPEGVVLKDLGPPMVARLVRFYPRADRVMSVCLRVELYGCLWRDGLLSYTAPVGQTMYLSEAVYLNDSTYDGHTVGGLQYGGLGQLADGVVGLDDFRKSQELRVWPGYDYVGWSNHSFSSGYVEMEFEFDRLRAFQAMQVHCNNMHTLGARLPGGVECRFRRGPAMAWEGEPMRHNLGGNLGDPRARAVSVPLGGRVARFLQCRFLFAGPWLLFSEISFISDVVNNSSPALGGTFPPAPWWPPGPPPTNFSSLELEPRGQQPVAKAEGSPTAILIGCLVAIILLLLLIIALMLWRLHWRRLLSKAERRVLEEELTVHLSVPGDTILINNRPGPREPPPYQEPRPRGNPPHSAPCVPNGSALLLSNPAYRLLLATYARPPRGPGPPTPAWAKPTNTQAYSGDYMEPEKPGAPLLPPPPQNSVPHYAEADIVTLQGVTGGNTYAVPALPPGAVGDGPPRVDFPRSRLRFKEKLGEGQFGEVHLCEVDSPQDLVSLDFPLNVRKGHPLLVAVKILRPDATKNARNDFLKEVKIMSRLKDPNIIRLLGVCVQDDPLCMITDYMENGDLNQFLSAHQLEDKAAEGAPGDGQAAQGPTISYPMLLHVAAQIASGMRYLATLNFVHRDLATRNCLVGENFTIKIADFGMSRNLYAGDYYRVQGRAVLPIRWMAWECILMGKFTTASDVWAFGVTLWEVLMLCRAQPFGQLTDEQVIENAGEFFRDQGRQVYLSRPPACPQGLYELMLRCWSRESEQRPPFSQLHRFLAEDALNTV
In short: as §1

[4] = target: SRC (Homo sapiens, UniProt P12931); settings: competitive binding, percent of DMSO control
Sequence of SRC (P12931 whole entry): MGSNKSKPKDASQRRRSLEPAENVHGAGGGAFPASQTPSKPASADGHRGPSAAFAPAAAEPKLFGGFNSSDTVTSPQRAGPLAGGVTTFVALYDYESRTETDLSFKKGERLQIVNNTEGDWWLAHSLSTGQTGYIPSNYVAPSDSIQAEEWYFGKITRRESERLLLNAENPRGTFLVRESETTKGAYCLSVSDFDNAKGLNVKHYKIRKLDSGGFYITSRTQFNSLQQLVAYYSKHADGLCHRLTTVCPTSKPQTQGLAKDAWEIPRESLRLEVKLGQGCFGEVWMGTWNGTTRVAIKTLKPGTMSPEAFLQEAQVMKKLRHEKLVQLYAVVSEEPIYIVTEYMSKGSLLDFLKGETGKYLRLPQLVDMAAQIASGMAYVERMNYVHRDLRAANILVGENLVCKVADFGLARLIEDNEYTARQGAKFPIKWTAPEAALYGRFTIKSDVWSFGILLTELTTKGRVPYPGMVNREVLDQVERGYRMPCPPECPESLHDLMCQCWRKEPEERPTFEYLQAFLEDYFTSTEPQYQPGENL
In short: as §1

[5] = target: PRKAA1 (Homo sapiens, UniProt Q13131); settings: competitive binding, percent of DMSO control
Sequence of PRKAA1 (Q13131 whole entry): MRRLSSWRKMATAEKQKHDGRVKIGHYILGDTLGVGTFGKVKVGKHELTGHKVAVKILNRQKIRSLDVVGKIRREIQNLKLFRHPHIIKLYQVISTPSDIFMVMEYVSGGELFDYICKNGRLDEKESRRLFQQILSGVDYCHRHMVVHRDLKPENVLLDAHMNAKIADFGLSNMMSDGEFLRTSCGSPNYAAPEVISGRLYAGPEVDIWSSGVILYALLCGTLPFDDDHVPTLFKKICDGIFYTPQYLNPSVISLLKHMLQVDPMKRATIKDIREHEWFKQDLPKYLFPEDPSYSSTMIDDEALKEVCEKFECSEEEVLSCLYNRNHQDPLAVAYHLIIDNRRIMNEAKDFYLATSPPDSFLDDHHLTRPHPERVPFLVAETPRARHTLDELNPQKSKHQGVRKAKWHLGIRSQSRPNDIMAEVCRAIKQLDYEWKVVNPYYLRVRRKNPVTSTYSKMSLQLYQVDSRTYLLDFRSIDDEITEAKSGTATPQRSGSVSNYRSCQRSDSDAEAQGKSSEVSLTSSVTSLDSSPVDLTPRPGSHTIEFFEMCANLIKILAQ
Sequence of PRKAA1 (P54619 whole entry partner): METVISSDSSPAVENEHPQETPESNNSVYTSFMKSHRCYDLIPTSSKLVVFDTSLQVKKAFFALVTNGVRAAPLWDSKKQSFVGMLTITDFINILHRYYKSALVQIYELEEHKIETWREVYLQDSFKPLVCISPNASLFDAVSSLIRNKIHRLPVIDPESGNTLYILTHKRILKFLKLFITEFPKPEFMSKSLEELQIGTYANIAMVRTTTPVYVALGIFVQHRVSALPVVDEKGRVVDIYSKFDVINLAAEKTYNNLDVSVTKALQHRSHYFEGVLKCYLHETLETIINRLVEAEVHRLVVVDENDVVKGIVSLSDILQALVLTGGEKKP
Sequence of PRKAA1 (Q9Y478 whole entry partner): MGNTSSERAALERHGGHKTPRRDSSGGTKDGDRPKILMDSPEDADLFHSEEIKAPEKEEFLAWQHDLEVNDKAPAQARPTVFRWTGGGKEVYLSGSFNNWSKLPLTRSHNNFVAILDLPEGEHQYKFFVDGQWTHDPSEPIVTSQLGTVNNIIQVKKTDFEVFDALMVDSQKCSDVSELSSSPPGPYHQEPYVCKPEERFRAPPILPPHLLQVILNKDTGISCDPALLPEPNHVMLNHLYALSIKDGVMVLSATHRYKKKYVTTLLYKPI
In short: as §1

[6] = target: PIM1 (Homo sapiens, UniProt P11309); settings: competitive binding, percent of DMSO control
Sequence of PIM1 (P11309 whole entry): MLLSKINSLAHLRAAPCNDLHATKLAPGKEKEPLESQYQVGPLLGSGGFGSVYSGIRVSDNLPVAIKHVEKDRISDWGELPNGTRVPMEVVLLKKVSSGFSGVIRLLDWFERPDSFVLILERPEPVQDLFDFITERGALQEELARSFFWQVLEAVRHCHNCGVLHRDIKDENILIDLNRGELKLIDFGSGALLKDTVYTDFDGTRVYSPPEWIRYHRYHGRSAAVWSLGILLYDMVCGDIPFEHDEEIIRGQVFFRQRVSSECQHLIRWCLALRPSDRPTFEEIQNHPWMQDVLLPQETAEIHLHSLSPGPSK
In short: as §1

[7] = target: T2, PKR (Homo sapiens, UniProt P19525); settings: read-out: Kinome Profiling performed by Eurofins DiscoverX / AM-5308, 1.0 µM / POC; competitive binding, percent of DMSO control
T2 construct: gene EIF2AK2
T2 sequence (P19525 whole entry): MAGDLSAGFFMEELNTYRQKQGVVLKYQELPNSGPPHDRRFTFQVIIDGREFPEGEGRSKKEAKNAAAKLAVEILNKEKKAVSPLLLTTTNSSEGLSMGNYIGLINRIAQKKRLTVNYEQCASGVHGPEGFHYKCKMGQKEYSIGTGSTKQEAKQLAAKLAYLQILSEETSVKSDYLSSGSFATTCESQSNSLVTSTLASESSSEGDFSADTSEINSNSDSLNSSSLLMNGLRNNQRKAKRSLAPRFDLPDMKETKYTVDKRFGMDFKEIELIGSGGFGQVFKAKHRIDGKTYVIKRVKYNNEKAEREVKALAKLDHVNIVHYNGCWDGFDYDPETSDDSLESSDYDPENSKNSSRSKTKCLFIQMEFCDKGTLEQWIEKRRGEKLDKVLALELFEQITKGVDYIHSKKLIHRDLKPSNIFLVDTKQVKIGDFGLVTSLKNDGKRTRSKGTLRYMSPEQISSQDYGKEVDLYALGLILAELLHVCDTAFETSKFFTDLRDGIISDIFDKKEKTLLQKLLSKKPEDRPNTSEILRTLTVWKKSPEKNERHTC
In short: as §1

[8] = target: T3, PKA alpha (Homo sapiens, UniProt P17612); settings: read-out: Kinome Profiling performed by Eurofins DiscoverX / AM-5308, 1.0 µM / POC; competitive binding, percent of DMSO control
T3 construct: gene PRKACA
In short: as §1

[9] = read-out: Kinome Profiling performed by Eurofins DiscoverX / AM-0277, 1.0 µM / POC
[10] = read-out: Kinome Profiling performed by Eurofins DiscoverX / AM-1882, 1.0 µM / POC
[11] = read-out: Kinome Profiling performed by Eurofins DiscoverX / AM-5308, 1.0 µM / POC

Sequence of MARK1 (Q9P0L2 whole entry): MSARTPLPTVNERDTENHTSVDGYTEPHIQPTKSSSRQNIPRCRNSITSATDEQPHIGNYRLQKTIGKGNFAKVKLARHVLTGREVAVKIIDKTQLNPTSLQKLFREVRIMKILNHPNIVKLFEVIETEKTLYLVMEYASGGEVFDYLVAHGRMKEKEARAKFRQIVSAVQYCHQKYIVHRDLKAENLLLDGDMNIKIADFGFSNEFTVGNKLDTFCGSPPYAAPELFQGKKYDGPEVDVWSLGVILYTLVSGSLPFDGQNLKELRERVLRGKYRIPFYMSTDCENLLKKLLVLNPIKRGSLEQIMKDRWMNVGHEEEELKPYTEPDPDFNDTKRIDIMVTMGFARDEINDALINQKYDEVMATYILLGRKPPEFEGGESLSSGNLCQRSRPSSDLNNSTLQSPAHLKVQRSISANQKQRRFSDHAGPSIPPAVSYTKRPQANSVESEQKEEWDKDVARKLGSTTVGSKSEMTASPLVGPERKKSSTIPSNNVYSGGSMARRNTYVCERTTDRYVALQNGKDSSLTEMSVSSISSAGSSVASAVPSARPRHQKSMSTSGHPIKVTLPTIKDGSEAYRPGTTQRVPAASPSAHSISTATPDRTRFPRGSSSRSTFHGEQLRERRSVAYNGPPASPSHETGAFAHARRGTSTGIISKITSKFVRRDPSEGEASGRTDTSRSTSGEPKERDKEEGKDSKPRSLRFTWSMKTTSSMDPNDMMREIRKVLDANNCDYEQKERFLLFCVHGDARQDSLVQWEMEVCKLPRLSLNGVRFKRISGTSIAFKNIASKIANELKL

remaining activity at 1 µM [1, 9]: 96% | remaining activity at 1 µM [2, 9]: 100% | remaining activity at 1 µM [3, 9]: 95% | remaining activity at 1 µM [4, 9]: 89% | remaining activity at 1 µM [5, 9]: 96% | remaining activity at 1 µM [6, 9]: 100%
SMILES: CC(C)(CO)Nc1ccc(C(=O)Nc2cccc(S(=O)(=O)C3CCCC3)c2)c(N2CCC3(CC2)CC3)n1 [AM-0277]

remaining activity at 1 µM [1, 10]: 100% | remaining activity at 1 µM [2, 10]: 82% | remaining activity at 1 µM [3, 10]: 97% | remaining activity at 1 µM [4, 10]: 98% | remaining activity at 1 µM [5, 10]: 100% | remaining activity at 1 µM [6, 10]: 88.5%
SMILES: CC(C)(C)NS(=O)(=O)c1cccc(NC(=O)c2ccc(S(=O)(=O)NC(C)(C)C)cc2N2CCC3(CC2)CC3)c1 [AM-1882]

remaining activity at 1 µM [1, 11]: 98.5% | remaining activity at 1 µM [2, 11]: 88.5% | remaining activity at 1 µM [7]: 90% | remaining activity at 1 µM [3, 11]: 100% | remaining activity at 1 µM [4, 11]: 96.5% | remaining activity at 1 µM [5, 11]: 97% | remaining activity at 1 µM [8]: 100% | remaining activity at 1 µM [6, 11]: 91%
SMILES: C[C@@H]1CN(c2cccc(NC(=O)c3ccc(NS(=O)(=O)CCO)cc3N3CCC4(CC3)CC4)n2)CCO1 [AM-5308]
